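Results reflect a 48-hour exposure of cells in 96-well plates to compound at five concentrations. The concentration for 50% growth inhibition is given as GI50.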 Activity calls are given as the source filed them. Cut-off read from the data, not from the text of the source: active = GI50 up to about 1.1 µM and inactive = higher.
Experiments:
Assay in all cases: growth of human tumour cells (NCI), 48 h
786-0 = system: 786-0
A549 = system: A549
ACHN = system: ACHN
CAKI-1 = system: CAKI-1
COLO 205 = system: COLO 205
EKVX = system: EKVX
KM12 = system: KM12
NCI-H460 = system: NCI-H460
NCI-H522 = system: NCI-H522
RXF 393 = system: RXF 393
SF-268 = system: SF-268
SK-MEL-5 = system: SK-MEL-5
SK-OV-3 = system: SK-OV-3
UO-31 = system: UO-31
HCC 2998 = system: HCC 2998
RPMI-8226 = system: RPMI-8226

Row | SMILES | GI50 (786-0) | GI50 (A549) | GI50 (ACHN) | GI50 (CAKI-1) | GI50 (COLO 205) | GI50 (EKVX) | GI50 (KM12) | GI50 (NCI-H460) | GI50 (NCI-H522) | GI50 (RXF 393) | GI50 (SF-268) | GI50 (SK-MEL-5) | GI50 (SK-OV-3) | GI50 (UO-31) | GI50 (HCC 2998) | GI50 (RPMI-8226)
1 | CC(=O)Nc1ccc(C2CC(c3ccc([N+](=O)[O-])cc3)=Nc3ccccc3S2)cc1 (centres undefined) | 17.4 µM (inactive) | 20.6 µM (inactive) | 16.6 µM (inactive) | 24 µM (inactive) | 36.8 µM (inactive) | 36.8 µM (inactive) | 13.9 µM (inactive) | 17.3 µM (inactive) | > 10 µM (inactive) | 19.3 µM (inactive) | 24 µM (inactive) | > 10 µM (inactive) | 40.6 µM (inactive) | 13.8 µM (inactive) |  | 
2 | COC(=O)C1(C(=O)OC)CC2c3c(c4ccccc4n3C)CC(C1=O)N2Cc1ccccc1 (centres undefined) | > 100 µM (inactive) | > 100 µM (inactive) | > 100 µM (inactive) | > 100 µM (inactive) | > 100 µM (inactive) | > 100 µM (inactive) | > 100 µM (inactive) | > 100 µM (inactive) | 57.3 µM (inactive) | 29.8 µM (inactive) | > 100 µM (inactive) | > 100 µM (inactive) | > 100 µM (inactive) | > 100 µM (inactive) | > 100 µM (inactive) | 61.1 µM (inactive)
3 | CCCCCCCCC(C)CCCCCCCCC(=O)OCC(COP(=O)([O-])OCC[N+](C)(C)C)OC(=O)CCCCCCCCC(C)CCCCCCCC (centres undefined) | > 100 µM (inactive) | > 100 µM (inactive) | > 100 µM (inactive) | > 100 µM (inactive) | > 100 µM (inactive) | > 100 µM (inactive) | > 100 µM (inactive) | > 100 µM (inactive) | > 100 µM (inactive) | > 100 µM (inactive) | > 100 µM (inactive) | > 100 µM (inactive) | > 100 µM (inactive) | > 100 µM (inactive) | > 100 µM (inactive) | > 100 µM (inactive)
4 | Cc1ccc(NC(=O)CC(=O)n2nc(C)c(/N=N/c3ccccc3C(=O)O)c2C)cc1 | > 100 µM (inactive) | > 100 µM (inactive) |  | > 100 µM (inactive) | > 100 µM (inactive) | > 100 µM (inactive) | > 100 µM (inactive) | > 100 µM (inactive) | > 100 µM (inactive) |  | > 100 µM (inactive) | > 100 µM (inactive) | > 100 µM (inactive) | > 100 µM (inactive) | > 100 µM (inactive) | > 100 µM (inactive)
5 | S=C(Nc1ccccc1)N(/N=C/C=C/c1ccccc1)c1nnc(-c2ccccc2)c(-c2ccccc2)n1 | > 100 µM (inactive) | 38.6 µM (inactive) | 60.4 µM (inactive) | 50.7 µM (inactive) | > 100 µM (inactive) | 45.4 µM (inactive) | 82.4 µM (inactive) | 67.5 µM (inactive) | 27.2 µM (inactive) | 50.9 µM (inactive) | 30.5 µM (inactive) | 30.8 µM (inactive) | > 100 µM (inactive) | 24.7 µM (inactive) | 76.7 µM (inactive) | 26.1 µM (inactive)
6 | Cc1ccccc1N1C(=O)/C(=C/c2ccc(N(CCC#N)CCC#N)cc2)N=C1c1cc([N+](=O)[O-])ccc1Cl | 84.5 µM (inactive) |  | > 100 µM (inactive) | > 100 µM (inactive) | 18.8 µM (inactive) |  | > 100 µM (inactive) | > 100 µM (inactive) | > 100 µM (inactive) |  | > 100 µM (inactive) | 38.5 µM (inactive) | > 100 µM (inactive) | > 100 µM (inactive) | > 100 µM (inactive) | 21 µM (inactive)
7 | Cn1nc(-c2ccccc2)c(C(=O)/C=C/c2ccccc2)c(N2CCOCC2)c1=O | 14.2 µM (inactive) | 20.3 µM (inactive) | 20 µM (inactive) |  | 19.5 µM (inactive) | > 10 µM (inactive) |  | 22.9 µM (inactive) | 12.9 µM (inactive) | 12.6 µM (inactive) | 16.9 µM (inactive) | 16 µM (inactive) | 27.6 µM (inactive) | 14.9 µM (inactive) |  | 14.6 µM (inactive)
8 | CCOC(=O)NC(=O)c1cn(CCN2CCN(C(=O)NCCCCCCNC(=O)N3CCN(CCn4cc(C(=O)NC(=O)OCC)c(=O)n(CCN(CC)CC)c4=O)CC3)CC2)c(=O)n(CCC(CC)CC)c1=O | > 100 µM (inactive) | > 100 µM (inactive) | > 100 µM (inactive) |  | > 100 µM (inactive) | > 100 µM (inactive) | > 100 µM (inactive) | > 100 µM (inactive) | > 100 µM (inactive) | > 100 µM (inactive) | > 100 µM (inactive) | > 100 µM (inactive) | > 100 µM (inactive) | > 100 µM (inactive) | > 100 µM (inactive) | > 100 µM (inactive)
9 | O=[N+]([O-])c1cc(Cl)ccc1OCc1ccccc1 | 59 µM (inactive) | 26.2 µM (inactive) | 51.4 µM (inactive) |  | > 100 µM (inactive) | 27.2 µM (inactive) | > 100 µM (inactive) | 55.8 µM (inactive) |  | 47.3 µM (inactive) | > 100 µM (inactive) | 27.3 µM (inactive) | > 100 µM (inactive) |  | > 100 µM (inactive) | 67 µM (inactive)
10 | CC(=O)c1cccc(NC(=O)C(=O)C(C2OC(=O)c3ccccc32)[N+](=O)[O-])c1 (centres undefined) | > 100 µM (inactive) | > 100 µM (inactive) | > 100 µM (inactive) | > 100 µM (inactive) | > 100 µM (inactive) | > 100 µM (inactive) | > 100 µM (inactive) | > 100 µM (inactive) |  | > 100 µM (inactive) | > 100 µM (inactive) | > 100 µM (inactive) | > 100 µM (inactive) | 60.1 µM (inactive) | > 100 µM (inactive) | > 100 µM (inactive)
11 | O=C(O)C(=O)/C=C\c1ccc(Cl)cc1 | > 100 µM (inactive) | > 100 µM (inactive) | > 100 µM (inactive) | > 100 µM (inactive) | > 100 µM (inactive) | > 100 µM (inactive) | > 100 µM (inactive) | > 100 µM (inactive) | > 100 µM (inactive) | > 100 µM (inactive) | > 100 µM (inactive) | > 100 µM (inactive) | > 100 µM (inactive) | > 100 µM (inactive) | > 100 µM (inactive) | > 100 µM (inactive)
12 | COc1cc(/C=N/N=C(\N)NO)c([N+](=O)[O-])cc1OC | 29.9 µM (inactive) | 26.3 µM (inactive) | 14.8 µM (inactive) | 20.4 µM (inactive) | 36.1 µM (inactive) | 18.1 µM (inactive) | 44.4 µM (inactive) | 12.6 µM (inactive) | 13.3 µM (inactive) | 33.7 µM (inactive) | 25.2 µM (inactive) | 18 µM (inactive) | 23.3 µM (inactive) | 35.7 µM (inactive) | 24.2 µM (inactive) | 73.8 µM (inactive)
13 | N#Cc1c(N)oc2cc3c(C#N)c(N)oc3cc12 | > 100 µM (inactive) | > 100 µM (inactive) | > 100 µM (inactive) | > 100 µM (inactive) | > 100 µM (inactive) | > 100 µM (inactive) | > 100 µM (inactive) | > 100 µM (inactive) | > 100 µM (inactive) | > 100 µM (inactive) | > 100 µM (inactive) | > 100 µM (inactive) | > 100 µM (inactive) | > 100 µM (inactive) | > 100 µM (inactive) | > 100 µM (inactive)
14 | O=C1C2C3C=C4c5ccccc5N(c5ccccc5)C4(C2C(=O)N1c1ccc([N+](=O)[O-])cc1)[C@H]1C(=O)N(c2ccc([N+](=O)[O-])cc2)C(=O)[C@@H]31 (some centres undefined) | > 100 µM (inactive) | > 100 µM (inactive) | > 100 µM (inactive) | > 100 µM (inactive) | > 100 µM (inactive) | > 100 µM (inactive) | > 100 µM (inactive) | > 100 µM (inactive) | > 100 µM (inactive) | > 100 µM (inactive) | > 100 µM (inactive) | > 100 µM (inactive) | > 100 µM (inactive) | > 100 µM (inactive) | > 100 µM (inactive) | > 100 µM (inactive)
15 | COC(=O)C1=C(O)c2cc(OC)c(OC)c(OC)c2C(c2ccc3c(c2)OCO3)[C@@H]1C(=O)OC (some centres undefined) | 3.65 µM (inactive) | 4.68 µM (inactive) | 4.74 µM (inactive) | 0.935 µM (active) | 2.24 µM (inactive) | 25.2 µM (inactive) | 2.94 µM (inactive) | 5.47 µM (inactive) |  | 2.29 µM (inactive) | 4.28 µM (inactive) |  | 3.44 µM (inactive) | 6.08 µM (inactive) | 4.97 µM (inactive) | 6.62 µM (inactive)
16 | CCN(CC)CCCC(C)NC(=O)c1ccc2c(c1)C(=O)c1ccccc1C2=O (centres undefined) | 18.6 µM (inactive) | 21.7 µM (inactive) | 18.1 µM (inactive) | 25.9 µM (inactive) | 8.38 µM (inactive) | 21.3 µM (inactive) | 15.4 µM (inactive) | 16.4 µM (inactive) | 18.9 µM (inactive) | 19.7 µM (inactive) | 23.6 µM (inactive) | 14.5 µM (inactive) | 40.1 µM (inactive) | 20.1 µM (inactive) | 18.1 µM (inactive) | 18.7 µM (inactive)
17 | O=C(O)CS [THIOGLYCOLIC ACID] | > 100 µM (inactive) | > 100 µM (inactive) |  | > 100 µM (inactive) | > 100 µM (inactive) | > 100 µM (inactive) | > 100 µM (inactive) | > 100 µM (inactive) | > 100 µM (inactive) | > 100 µM (inactive) | > 100 µM (inactive) | > 100 µM (inactive) | > 100 µM (inactive) | > 100 µM (inactive) | > 100 µM (inactive) | > 100 µM (inactive)

Source: ChEMBL document CHEMBL1201862, “PubChem BioAssay data set” (2004)
